Measured values taken from patent US8129425B2, “Small organic molecule regulators of cell proliferation” (Curis, Inc., priority 2000, dated 2012).

What was measured:
[1] = tested on: hedgehog-responsive Gli-Luc reporter-construct; assay: Gli-Luc hedgehog pathway reporter assay in [10T1/2(s12)] cells; assay type: cell-based, murine; settings: Table 1
Procedure: To measure the hedgehog agonist activity of compounds, we used [10T1/2(s12)] cells containing the hedgehog-responsive Gli-Luc reporter-construct. In each MTP (MicroTiter Plate; 96-well plate), 10,000-20,000 cells were plated per well, in full media (10% FBS). After about 24-48 hr, plates were switched to low-serum media (=0.5%. FBS). Subsequently, a test compound was added at 1-5 μM in the presence or absence of octyl-hedgehog (see below). After another 24 hr, the media from the MTPs was discarded and replaced with luciferase assay-mix, containing lysis-buffer with luciferase substrate. The plates were incubated at RT for about 15-30 min and read in a luminometer.
Plates were incubated for 48 hr before switching to low-serum. Compounds were screened at 1-2 μM in the presence of Hh protein (0.01 μg/ml; EC30=about 30% of max-induced activity).
Plates were incubated for 24 hr before switching to low-serum. Compounds were screened at 5 μM without adding Hh protein.
From Screen A, we identified hits identified in FIGS. 32 and 33. The 1,4-diaminocyclohexane subunit of the compounds of FIG. 32 which include this moiety have the two amino substituents disposed in a trans-relationship, e.g., both substituents equatorial on the cyclohexane subunit. These hits were confirmed in Screen B. The data shown in FIGS. 34a and 34b essentially involved dosing the two compounds in both assays (Gli-Luc & SV-Luc).
The data from the Gli-Luc assay is converted to percent activity where full activity with Hh protein is set at 100% (FIG. 35; Table 1). […] Furthermore, the compounds show a more striking induction in the presence of hedgehog (EC50=0.2-0.3 μM, ECmax=70-90% of max induced activity with Hh protein), indicating a synergy between the compounds and Hh protein, consistent with the compounds serving as agonists for the hedgehog pathway.

[2] = tested on: malonate induced striatal lesion; assay: Rat malonate lesion model of Huntington's disease; assay type: in vivo; settings: 300 μM in Alzet pump into brain ventricles, 1 μl/hr for 6 days pretreatment; vs vehicle, p=0.0159
Procedure: Malonate is a mitochondrial toxin and defects in mitochondrial energy metabolism are thought to play a role in the pathology of neurodegenerative diseases such as HD. When malonate is injected into the rat striatum a lesion forms in this brain region. The experiments described below tested whether the Hh agonist would reduce the size of the malonate induced striatal lesion. Hh agonist was administered directly into the brain ventricles of male SD rats via a cannula attached to an osmotic Alzet pump. […] After 6 days of pretreatment with compound, malonate was injected directly into the brain striatum and the Alzet pump was removed. Four days later rats were euthanized and the brains were sliced into 2 mm slabs. The slices were placed in a 2% solution (TTC) that stains living tissue red and the striatal infarct white. The size of the infarct (% infarct) was measured using image analysis software and the data were analyzed by one-way ANOVA followed by appropriate post-hoc tests (p<0.05).

SVZ precursor cells = assay: SVZ precursor cell proliferation (BrdU) after direct brain administration in adult rats; assay type: in vivo, rat; settings: 200 μM in pump into brain ventricles, 0.5 μl/hr for 6 days; p<0.05
Procedure: Hh agonist was administered directly into the brain ventricles of male SD rats via a cannula attached to an osmotic Alzet pump. The pumps were filled with either vehicle (5% 2-hydroxypropyl-B-cyclodextrin, 4.35% Mannitol, 0.2% DMSO) or Hh agonist (U″ ranging from 10-600 μM) and the pump released compound into the ventricles at constant rate of 0.5 μl/hr for 6 days. After 6 days of pretreatment with compound, animals were injected with Bromodeoxyuridine (BrdU, 50 mg/kg, ip) to label dividing cells. Two hours after BrdU treatment, rats were euthanized and perfused with fixative. Brains were collected and processed for BrdU immunohistochemistry. The number of BrdU-immunoreactive (BrdU-IR) cells was then counted in the SVZ on both the sides of the brain with the cannula (ipsilateral) and without (contralateral).

EC50 [1]: < 5 nM
SMILES: CN[C@H]1CC[C@H](N(Cc2cccc(-c3ccncc3)c2)C(=O)c2sc3c(F)ccc(F)c3c2Cl)CC1 [U′′]
size of malonate-induced infarct (% infarct) [2]: reduced the size of the malonate-induced infarct
number of BrdU-IR cells in SVZ (SVZ precursor cells): dramatically increased on both sides of the brain
